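1) Cells in 96-well plates. 2) Compound, 48 h, 5 concentrations. 3) Linear interpolation between surrounding doses. 4) Unreached endpoint = highest concentration. The concentration for 50% growth inhibition is given as GI50. TGI is the concentration that stops growth completely.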
Experiments:
Test in all cases: DTP human tumour cell line panel, 48 h
[1] = system: DU-145 prostate
[2] = system: HCT-116 colon
[3] = system: HOP-62 NSCLC
[4] = system: HS 578T breast
[5] = system: KM12 colon
[6] = system: NCI-H23 lung
[7] = system: OVCAR-5 ovarian
[8] = system: PC-3 prostate
[9] = system: SR leukemia
[10] = system: UACC-62 melanoma

Structure (SMILES)	TGI [1] [µM]	TGI [2] [µM]	TGI [3] [µM]	TGI [4] [µM]	TGI [5] [µM]	TGI [6] [µM]	TGI [7] [µM]	TGI [8] [µM]	TGI [9] [µM]	TGI [10] [µM]	GI50 [1] [µM]	GI50 [2] [µM]	GI50 [3] [µM]	GI50 [4] [µM]	GI50 [5] [µM]	GI50 [6] [µM]	GI50 [7] [µM]	GI50 [8] [µM]	GI50 [9] [µM]	GI50 [10] [µM]
Cc1cc2nc(C=C(C(F)(F)F)C(F)(F)F)oc2cc1C	> 10	2.72	9.72	8.84	> 10	4.97	7.03	5.08	> 10	> 10										
COc1c(C(=O)/C=C/c2ccccc2)c(O)cc2occc12	13.2	12.5	25.2	8.36	13.3	20.8	19.8	37.9	22.2	15.1	3.81	3.72	11.3	2.76	3.71	6.12	5.67	7.01	3.27	4.15
CC/C=C\C[C@H](O)C/C=C1/C(=O)C=C[C@@H]1C/C=C\CCCC(=O)OC	15.2	2.92	5.15	40.1	5.02	4.25	6.69	7.29	6.18	3.49	4.07	0.572	1.48	5.18	1.38	1.75	2.7	2.7	0.403	1.05
CN1CCN(CCCNc2nc3ccc(Oc4ccc(NC(=O)Nc5cc(C(F)(F)F)ccc5F)cc4)cc3[nH]2)CC1	12.5	7.99	7.25	8.26	6.74	7.9	> 20.7	10.6	> 16.8	7.66	5.17	4.28	3.84	3.67	3.44	4.03	6.75	4.82	6.33	4.1
NS(=O)(=O)c1ccc(-c2ccc3c(NC(=O)C4CC4)n[nH]c3c2)cc1	> 25	> 25	> 25	> 25	> 25	> 25	> 25	> 25	> 25	> 25	> 25	> 25	> 25	> 25	> 25	> 25	> 25	> 25	> 25	> 25
Cc1ccc(N=C/C=C(\Nc2ccc(C)cc2)c2ccc(Cl)cc2)cc1	38.4	46.8	35.9	41.7	46.7	32.3	94.9	> 100	> 100	39.8	15.6	5.54	14.9	15.3	5.36	11	24.4	26.8	2.32	7.31
CN1CCc2nc(N)nc(-c3nc(N)nc4c3CN(C)CC4)c2C1	> 100	> 100	> 100	> 100	> 100	> 100	> 100	> 100	> 100	> 100										
Cc1ccc(NC(=O)c2cccc(C(C)(C)C#N)c2)cc1Nc1ccc2ncn(C)c(=O)c2c1	> 100	> 100	> 100	> 100	> 100	> 100	> 100	> 100	> 100		5.66	0.1	1.11	8.65	1.66	0.304	0.123	25.9	4.79	0.0275
CCOC(=O)C1CCN(S(=O)(=O)/N=C2/NC(=O)NC2=C(Cl)Cl)CC1	15.1	2.48	16.5	65.3	10.5	4.38	14.7	2.58	4.96	3.27	2.37	0.736	0.971	9.14	0.254	2.12	3.6	0.621	0.731	1.71
CN(C)CCNc1ccc(CO)c2oc3ccc(O)cc3c(=O)c12	53.9	52.2	27.3	33.4	40	24.6	38	29.3	4.36	25										
COc1ccc2[nH]c3c4[nH]c5ccc(OC)cc5c4c4c(c3c2c1)C(=O)NC4=O	> 25	> 25	> 25	> 25	> 25	> 25	> 25	> 25	> 25	> 25	> 15.1	> 11	> 25	1.35	1.76	> 14.4	> 25	> 15.7	1.29	> 25
COc1cc(OC)c(C(=O)/C=C/c2cccc(C(F)(F)F)c2)c(OC)c1	6.08	1.59	5.46	28.6	6.42	3.48	7.04	6.05	3.13	2.5	1.73	0.806	1.56	3.93	1.79	1.14	2.28	1.64	0.826	0.986
COCC[C@H]1CCC/C=C/[C@@H]2C[C@H](O)C[C@H]2[C@H](O)/C=C/C(=O)O1	> 100	0.332	> 100	> 100	0.118	0.858	> 100	> 100		> 100	0.445	0.149	0.0946	0.0506	0.034	0.0858	0.247	0.193	0.141	0.0425
CC1(C)C(=O)/C(=C\c2cccnc2)C[C@]2(C)[C@H]3CC[C@@H]4[C@H]5[C@H](C(=O)/C=C/c6cccnc6)CC[C@]5(C(=O)O)CC[C@@]4(C)[C@]3(C)CC[C@@H]12	5	3.56	4.5	> 100	3.64	4.87	4.88	8.58	29.7	4.02	2.1	1.61	1.89	7.61	1.73	2.06	2.44	2.41	2.03	2.03
N#Cc1cc(-c2cc3ccccc3o2)oc1N	28.9	12.2	11.3	3.41	11.8	22.8	30.6	6.85	3.1	17.2	4.4	3.65	3.18	0.401	3.58	3.9	4.34	2.73	0.764	3.79
COC(=O)Nc1nc2ccc(C3(c4ccc(F)cc4)OCCO3)cc2[nH]1	> 100	> 49.6	> 100	> 69.9	> 100	> 100	> 100	> 100	> 100	> 100	0.363	0.409	3.24	0.315	0.352	1.14	0.614	0.341	0.122	0.619
COc1ccc(-c2cc(-c3cc(C)cc(Br)c3O)no2)cc1	36.2	28.5	41.9	> 100	> 100	99.7	88.9	33.5	> 100	38.9										
COc1ccc(C(=O)c2cc(C)c(OC)c(C)c2)c(OC)c1O	> 100	> 100	> 100	> 100	> 100	> 100	> 100	> 100	> 100	> 100	0.0369	0.103	0.19	0.0274	< 0.017	0.0879	4.9	0.0402		0.638
COc1ccc(C(=O)c2cc(OC)c(OC)c(OC)c2)cc1/C=C/C(=O)c1ccc(F)cc1	21	3.57	26.7	> 100	8.07	31.1	11.5	13.7	95.7	5.52	7.72	1.75	3.92	4.48	2.79	6.2	2.67	3.3	2.04	2.01
Cc1cc(C(=O)Nc2ccc3cc(CN4CCOCC4)ccc3n2)c(C)n1-c1ccccc1	35.7	17.2	8.05	44.6	4.66	6.77	57.6	6.69	> 74.8	3.88	3.6	1.68	1.72	4	1.68	0.974	10.2	1.34	2.6	1.38
